Measurements published in ChEMBL document CHEMBL4138267, “Synthesis and SAR of 1,2,3,4-Tetrahydroisoquinoline-Based CXCR4 Antagonists” (ACS Med Chem Lett, 2018).

Experiments:
[1] = Permeability of the compound at pH 7.4 by PAMPA; format: ADME
[2] = Permeability of the compound at pH 5.5 by PAMPA; format: ADME

Compound	permeability [1]	permeability [2]
NCCCCN(C[C@H]1Cc2ccccc2CN1)[C@H]1CCCc2cccnc21	Impermeable	Impermeable
Cc1ccc([C@H](C)N(CCCCN)C[C@H]2Cc3ccccc3CN2)nc1	Impermeable	Impermeable
COc1cccnc1CN(CCCCN)C[C@H]1Cc2ccccc2CN1	Impermeable	Impermeable
NCCCCN(Cc1ccc(F)cn1)C[C@H]1Cc2ccccc2CN1	Impermeable	Impermeable
NCCCCN(Cc1ccc2ccccc2n1)C[C@H]1Cc2ccccc2CN1	Impermeable	Impermeable
Cc1cc(F)cnc1CN(CCCCN)C[C@H]1Cc2ccccc2CN1	Impermeable	Impermeable
NCCCCN(Cc1ccc(Cl)cn1)C[C@H]1Cc2ccccc2CN1	Impermeable	Impermeable
NCCCCN(Cc1ccc(C(F)(F)F)cn1)C[C@H]1Cc2ccccc2CN1	Impermeable	Impermeable
Cc1cnc2c(c1)CCC[C@@H]2N(CCCCN)C[C@H]1Cc2ccccc2CN1	Impermeable	Impermeable
NCCCCN(Cc1cc(Cl)ccn1)C[C@H]1Cc2ccccc2CN1	Impermeable	Impermeable
Cc1cccnc1[C@H](C)N(CCCCN)C[C@H]1Cc2ccccc2CN1	Impermeable	Impermeable
Cc1ccnc(CN(CCCCN)C[C@H]2Cc3ccccc3CN2)c1	Impermeable	Impermeable
NCCCCN(Cc1cscn1)C[C@H]1Cc2ccccc2CN1	Impermeable	Impermeable
NCCCCN(Cc1ncccc1C1CC1)C[C@H]1Cc2ccccc2CN1	Impermeable	Impermeable
C[C@@H](c1ccccn1)N(CCCCN)C[C@H]1Cc2ccccc2CN1	Impermeable	Impermeable
Cc1cccc(CN(CCCCN)C[C@H]2Cc3ccccc3CN2)n1	Impermeable	Impermeable

Compound	permeability [1]	permeability [2]
NCCCCN(Cc1ncccc1F)C[C@H]1Cc2ccccc2CN1	Impermeable	Impermeable
Cc1nc(CN(CCCCN)C[C@H]2Cc3ccccc3CN2)cs1	Impermeable	Impermeable
Cc1cnc(CN(CCCCN)C[C@H]2Cc3ccccc3CN2)c(C)c1	Impermeable	Impermeable
COc1ccc(CN(CCCCN)C[C@H]2Cc3ccccc3CN2)nc1	Impermeable	Impermeable
NCCCCN(C[C@H]1Cc2ccccc2CN1)[C@H]1CCOc2cccnc21	Impermeable	Impermeable
NCCCCN(Cc1nccc2ccccc12)C[C@H]1Cc2ccccc2CN1	Impermeable	Impermeable
NCCCCN(Cc1ncccc1Cl)C[C@H]1Cc2ccccc2CN1	Impermeable	Impermeable
Cc1cnc(CN(CCCCN)C[C@H]2Cc3ccccc3CN2)c(F)c1	Impermeable	Impermeable
Cc1cccnc1CN(CCCCN)C[C@H]1Cc2ccccc2CN1	Impermeable	Impermeable
NCCCCN(Cc1ncccc1C(F)(F)F)C[C@H]1Cc2ccccc2CN1	Impermeable	Impermeable
NCCCCN(Cc1ccccn1)C[C@H]1Cc2ccccc2CN1	Impermeable	Impermeable
Cc1ccc(CN(CCCCN)C[C@H]2Cc3ccccc3CN2)nc1	Impermeable	Impermeable
NCCCCN(Cc1cc2ccccc2cn1)C[C@H]1Cc2ccccc2CN1	Impermeable	Impermeable
C=Cc1cccnc1CN(CCCCN)C[C@H]1Cc2ccccc2CN1	Impermeable	Impermeable
NCCCCN(Cc1nccs1)C[C@H]1Cc2ccccc2CN1	Impermeable	Impermeable
